These are literature values, as cited in patent publication US7781642B2, “Animal model having a chimeric human liver and susceptible to human hepatitis C virus infection” (KMT Hepatech, Inc., priority 2000, dated 2010).

For one series, the system named is HCV. Particulars: HCV patients; cited from earlier work.
In another series the test system is HBV. Particulars: post needle-stick exposure; cited from earlier work.

Consider interferon and ribavirin, for which, in the series on HCV, the Sustained response rate result is given as “up to 40%”.
Regarding Hepatitis B Immunoglobulin [HBIg], in the series with HBV, the “Cases in which transmission of HBV was prevented” value is 80%.
